The record followed here is patent publication US9499484B2, “Indole, indoline derivatives, compositions comprising them and uses thereof” (priority 2012, dated 2016).

The structures appear in SMILES notation. Counter-ions that a name gives are not always drawn. Some results are limits rather than exact numbers.

For the first series, the system named is TNF-α, BV2 mouse microglial cells. The series is described as follows: TNF-α reduction in LPS-stimulated BV2 microglia. It counts as cell-based.
Details: not given
As to the method:
The BV2 mouse microglial cells were created by infecting primary mouse microglia with v-raf/v-myc oncogen-carrying retrovirus and donated by Dr. Sigal Fleisher—Berkovich (Ben-Gurion University of the Negev). The cells were cultured in RPMI 1640 containing 0.4 mM L-Glutamine, 10% FCS, 100 units/ml penicillin, 100 μg/ml streptomycin and maintained in a humidified incubator at 37° C. with 5% CO2. For measurement of the effect of compounds on the release of NO the cells were seeded in a density of 80,000 cells/ml and confluence of about 60%, and incubated with test compounds (in the absence of FCS) for […] All the medium was removed and fresh medium containing FCS and LPS (10 μg/ml) added and the cells maintained at 37° C. for 24 h. The release of NO into the medium was determined by measurement of nitrite levels using Griess reagent reaction. For measurement of protein levels of cytokines cells were seeded in a density of 80,000 and incubated with test compounds (in the absence of FCS) and then with LPS as described above. The medium was centrifuged and supernatants collected after 6 h for TNF-α (Biolegend) and after 20 h for IL-6 (Biolegend).
On to `Oc1cccc2c1CCN2` [AN-855, Indolin-4-ol hydrochloride], for which the “Reduction in TNF-α levels, BV2 Microglia % peak reduction” value was 38.2 ± 3.2%.

The series is the same for the next values; noted with them: concentration range; None = no reduction up till 100 nM.
Regarding `Oc1cccc2c1CCN2` [AN-855, Indolin-4-ol hydrochloride], the “Reduction in TNF-α levels, BV2 Microglia range” value is reported as 10^−1-100 nM.

Tested on in a further series: not listed separately
The series is described as follows: Radical scavenging, glucose oxidase/luminol luminescence. The series is classed as biochemical. Particulars: concentration reducing luminescence/radical by 50%; mean ± SD, three independent experiments. How it is done:
A. Measurement of Radical Scavenging
A mixture comprising glucose oxidase (GO), luminol, sodium selenite [IV] ([…]) and cobalt [II] (Co^+2) all in Hank's Balance Salt Solution (HBSS) was used (Ginsburg et al, 2004). The production of H2O2 produces a burst of luminescence within 30-60 sec, which lasts for 7-10 min. The luminescence involves oxidation of SEL+5 to it SEL+6 and also the generation of oxidants, which are catalyzed by Co^+2. This method mimics infection and inflammation conditions in which there is an accumulation of several oxidant species. This method provides a source of several radicals. Reduction in luminescence by the compounds is due to their ability to sequester radicals and was measured after addition of several concentrations of each compound. The concentration of each compound that reduced the luminescence by 50% was calculated.
As a reminder, the IC50 is the concentration that inhibits the measured activity by half. `CCCCN(C)C(=O)Oc1cccc2c1C(CCC(=O)OC)CN2C` (stereo not drawn) [AN-667, 3-(2-(Methoxycarbonyl)ethyl)-1-methylindolin-4-yl butylmethylcarbamate hydrochloride] had an IC50 of 6.84 ± 0.05 µM. Regarding `CCN(C)C(=O)Oc1cccc2c1C(CCC(=O)OC)CN2C` (stereo not drawn) [AN-698, 3-(2-(Methoxycarbonyl)ethyl)-1-methylindolin-4-yl ethylmethylcarbamate hydrochloride], the IC50 is 3.13 ± 0.36 µM.

Take `CCN(C)C(=O)Oc1cccc2c1C(CCC(=O)O)CN2C` (stereo not drawn) [AN-699, 3-(4-((Ethyl(methyl)carbamoyl)oxy)-1-methylindolin-3-yl)propanoic acid hydrochloride]: the IC50 is 1.64 ± 0.06 µM.

As to `COc1ccc(N(C)C(=O)Oc2cccc3c2C(CCC(=O)O)CN3)cc1` (stereo not drawn) [AN-821, hydrochloride], the IC50 was 4.33 ± 0.06 µM.

`COc1ccc(N(C)C(=O)Oc2cccc3c2C(CCC(=O)O)CN3C)cc1` (stereo not drawn) [AN-822, hydrochloride] gave an IC50 of 10.2 ± 4.1 µM. For `[2H]c1cc2c(cc1O)N(C)CC2CCC(=O)O` (stereo not drawn) [AN-849, Methyl 3-(5-deuteriu-6-hydroxy-1-methylindolin-3-yl) propanoic acid hydrochloride], the IC50 worked out at 0.84 ± 0.05 µM. Same read-out and setting: in the case of `CCN(C)C(=O)Oc1cccc2c1C(CCC(N)=O)CN2` (stereo not drawn) [AN-851, 3-(3-Amino-3-oxopropyl)indolin-4-yl ethyl(methyl)carbamate hydrochloride] it was 2.39 ± 0.4 µM; in that of `CN(C)C(=O)Oc1cccc2c1CCN2` [AN-856, Indolin-4-yl dimethylcarbamate hydrochloride], 0.77 ± 0.03 µM. Still for that read-out and setting: in the case of `CCN(C)C(=O)Oc1ccc2c(c1)NCC2` [AN-885, Indolin-6-yl ethyl(methyl)carbamate hydrochloride] it was 1.15 ± 0.01 µM.

A further series addresses T1, BuChE (UniProt P81908).
T1 construct: 120 min incubation; BuChE IC50
Test: not given
The series is classed as biochemical, human or equine serum. Particulars: read-out: BuChE IC50; most potent BuChE inhibitors. How it is done: B. Measurement of Acetylcholinesterase (AChE) and Butylcholinesterase (BuChE) Inhibition In Vitro
The enzyme was incubated at 37° C. with 6-10 concentrations of the compounds tested and samples were collected at 15, 30, 60 and 120 min Aliquots were transferred to an Elisa multiscan microplate reader (Labsystems) at 15-60 sec time intervals for the determination of residual AChE activity, with Ascent PC software. […] The % inhibition of AChE by each concentration was calculated by comparison with the activity of the enzyme in the absence of drug. […] BuChE-inhibitory activity was determined as described above using BuChE (Sigma Israel) with butylthiocholine iodide (BuTh) 0.075M as a substrate.
For the compound `CCN(C)C(=O)Oc1cccc2c1NCC2CCC(=O)OC` (stereo not drawn) [AN-852, Methyl 3-(7-(ethyl(methyl)carbamoyloxy)indolin-3-yl)propanoate hydrochloride], the IC50 was 0.08 µM.

The series is the same for the next values; noted with them: read-out: IC50 BuChE 120 min; Table 3; 120 min incubation.
In the case of `CCCCN(C)C(=O)Oc1cccc2c1C(CCC(=O)OC)CN2C` (stereo not drawn) [AN-667, 3-(2-(Methoxycarbonyl)ethyl)-1-methylindolin-4-yl butylmethylcarbamate hydrochloride], the IC50 was determined as 197 µM. `CCN(C)C(=O)Oc1cccc2c1C(CCC(=O)OC)CN2C` (stereo not drawn) [AN-698, 3-(2-(Methoxycarbonyl)ethyl)-1-methylindolin-4-yl ethylmethylcarbamate hydrochloride]: the IC50 was determined as 6.8 µM. For `CCN(C)C(=O)Oc1cccc2c1C(CCC(=O)O)CN2C` (stereo not drawn) [AN-699, 3-(4-((Ethyl(methyl)carbamoyl)oxy)-1-methylindolin-3-yl)propanoic acid hydrochloride], the IC50 came out at 9.7 µM. The same measure, in the same setting: the figure for `COc1ccc(N(C)C(=O)Oc2cccc3c2C(CCC(=O)O)CN3)cc1` (stereo not drawn) [AN-821, hydrochloride] is 417 µM; for `COc1ccc(N(C)C(=O)Oc2cccc3c2C(CCC(=O)O)CN3C)cc1` (stereo not drawn) [AN-822, hydrochloride] it is greater than 600 µM; for `CCN(C)C(=O)Oc1cccc2c1C(CCC(N)=O)CN2` (stereo not drawn) [AN-851, 3-(3-Amino-3-oxopropyl)indolin-4-yl ethyl(methyl)carbamate hydrochloride] it is 8.5 µM. On to `CN(C)C(=O)Oc1cccc2c1CCN2` [AN-856, Indolin-4-yl dimethylcarbamate hydrochloride], for which the 50% inhibitory concentration (IC50) was 1.3 µM. Still for that read-out and setting: in the case of `COc1ccc(N(C)C(=O)Oc2cccc3c2CCN3)cc1` [AN-857, Indolin-4-yl 4-methoxyphenyl(methyl)carbamate hydrochloride] it was 3.6 µM.

`CCN(C)C(=O)Oc1ccc2c(c1)NCC2` [AN-885, Indolin-6-yl ethyl(methyl)carbamate hydrochloride]: the IC50 was found to be 58.7 µM.

Tested on in a further series: not given
Test: not given
Details: not given
The melting point is the temperature of the solid-liquid transition. As to `CCCCN(C)C(=O)Oc1ccc2cc[nH]c2c1`, the melting point was in the range of 84 to 87 °C. `COC(=O)/C=C/c1c[nH]c2cc(OCc3ccccc3)ccc12` had a melting point of 174 to 178 °C. On the same count and under the same terms, the figure for `CCN(C)C(=O)Oc1ccc2cc[nH]c2c1` is 105 to 108 °C; for `CCN(C)C(=O)Oc1ccc2c(C=O)c[nH]c2c1` it is 170 to 175 °C. Consider `COC(=O)/C=C/c1c[nH]c2cc(O)ccc12`, for which the melting point was 195 to 200 °C. `COc1ccc(N(C)C(=O)Oc2ccc3cc[nH]c3c2)cc1`: the melting point fell in the range of 168 to 173 °C. For the compound `COc1ccc(N(C)C(=O)Oc2ccc3c(C=O)c[nH]c3c2)cc1`, the melting point fell in the range of 218 to 220 °C. Still for that read-out and setting: in the case of `COc1ccc(N(C)C(=O)Oc2ccc3c(C=O)cn(C)c3c2)cc1` it was 110 to 115 °C; in that of `COC(=O)/C=C/c1cn(C)c2cc(OC(=O)N(C)c3ccc(OC)cc3)ccc12`, 120 to 125 °C. Consider `CCN(C)C(=O)Oc1ccc2c(C=O)cn(C)c2c1`, for which the melting point fell in the range of 124 to 128 °C. `CCN(C)C(=O)Oc1ccc2c(/C=C/C(=O)OC)cn(C)c2c1` showed a melting point of 105 to 110 °C.

Compound `CCCCN(C)C(=O)Oc1ccc2c(C=O)cn(C)c2c1` came in with a melting point of 90 to 95 °C. `CCCCN(C)C(=O)Oc1ccc2c(/C=C/C(=O)OC)cn(C)c2c1` registered a melting point of 65 to 70 °C. On the same count and under the same terms, in the case of `COC(=O)/C=C/c1cn(C)c2cc(OCc3ccccc3)ccc12` it was 150 to 155 °C; in that of `CCN(C)C(=O)Oc1ccc2c(CCC(=O)O)c[nH]c2c1`, 132 to 136 °C; in that of `O=C(O)CCc1c[nH]c2cc(O)ccc12`, 197 to 200 °C. On the same count and under the same terms, in the case of `Cn1cc(CCC(=O)O)c2ccc(O)cc21` it was 157 to 161 °C; in that of `CCN(C)C(=O)Oc1cccc2[nH]cc(CCC(N)=O)c12`, 64 to 66 °C; in that of `COC(=O)/C=C/c1c[nH]c2c(OCc3ccccc3)cccc12`, 134 to 137 °C.

`COC(=O)CCc1c[nH]c2c(O)cccc12` registered a melting point of 89 to 94 °C.

For the compound `CCN(C)C(=O)Oc1cccc2c(CCC(=O)O)c[nH]c12`, the melting point was 98 to 101 °C. The same measure, in the same setting: in the case of `CCOC(=O)CCc1c[nH]c2cccc(OC(=O)N(C)CC)c12` it was 85 to 87 °C; in that of `CCN(C)C(=O)Oc1cccc2[nH]cc(/C=C/[N+](=O)[O-])c12`, 171 to 174 °C. In the case of `O=C(O)CCc1c[nH]c2cccc(O)c12`, the melting point was 118 to 120 °C. For `O=C(O)/C=C/c1c[nH]c2cccc(OCc3ccccc3)c12`, the melting point was in the range of 163 to 164 °C.

The compound `CCN(C)C(=O)Oc1ccc2ccn(CCC(=O)OC)c2c1` came in with a melting point of 94 to 96 °C.

Compound `CCN(C)C(=O)Oc1cccc2[nH]ccc12` came in with a melting point of 113 to 115 °C. Turning to `CCN(C)C(=O)Oc1cccc2c1ccn2C`, the melting point was 42 to 45 °C. For `CCN(C)C(=O)Oc1cccc2c1c(C=O)cn2C`, the melting point was in the range of 85 to 88 °C. Regarding `CCCCN(C)C(=O)Oc1cccc2[nH]ccc12`, the melting point lay within 86 to 89 °C. As for `COC(=O)CCc1c[nH]c2cc(O)ccc12`, the melting point fell in the range of 93 to 96 °C. For the compound `CCN(C)C(=O)Oc1ccc2c(CCC(=O)OC)cn(C)c2c1`, the melting point is 49 to 52 °C. `COC(=O)CCc1cn(C)c2cc(O)ccc12` returned a melting point of 35 to 40 °C.

`CCN(C)C(=O)Oc1cccc2[nH]cc(/C=C/C(=O)OC)c12` yielded a melting point of 128 to 131 °C. `CCN(C)C(=O)Oc1cccc2c1c(/C=C/C(=O)OC)cn2C` yielded a melting point of 97 to 100 °C. `COc1ccc(N(C)C(=O)Oc2cccc3[nH]ccc23)cc1` registered a melting point of 113 to 115 °C. Turning to `COc1ccc(N(C)C(=O)Oc2cccc3[nH]cc(C=O)c23)cc1`, the melting point lay in the range of 173 to 175 °C. The compound `COC(=O)/C=C/c1c[nH]c2cccc(OC(=O)N(C)c3ccc(OC)cc3)c12` gave a melting point of 155 to 157 °C.

As for `COC(=O)CCc1cn(C)c2cccc(OC(=O)N(C)c3ccc(OC)cc3)c12`, the melting point lay within 110 to 112 °C.

Compound `COc1ccc(N(C)C(=O)Oc2cccc3[nH]cc(CCC(=O)O)c23)cc1` had a melting point of 194 to 196 °C. The same measure, in the same setting: in the case of `COc1ccc(N(C)C(=O)Oc2cccc3c2c(CCC(=O)O)cn3C)cc1` it was 161 to 163 °C; in that of `COC(=O)/C=C/c1c[nH]c2cccc(OCc3ccccc3)c12`, 153 to 156 °C. Take `COC(=O)/C=C/c1cn(C)c2cccc(OCc3ccccc3)c12`: the melting point was in the range of 122 to 125 °C. On to `COC(=O)CCc1c[nH]c2cccc(O)c12`, for which the melting point lay within 93 to 95 °C. Still for that read-out and setting: the figure for `COC(=O)CCc1cn(C)c2cccc(O)c12` is 123 to 124 °C; for `CCN(C)C(=O)Oc1ccc2c(/C=C/C(=O)OC)c[nH]c2c1` it is 142 to 145 °C. Still for that read-out and setting: the figure for `CCN(C)C(=O)Oc1cccc2[nH]cc(/C=C/C(=O)O)c12` is 164 to 166 °C. On to `COC(=O)CCC1CN(C)c2cc(O)ccc21` (stereo not drawn) (as salt: hydrochloride), for which the melting point fell in the range of 104 to 108 °C.
